Data on 15 molecules can be found in US20230158025A1 (UNIVERSITY OF UTAH RESEARCH FOUNDATION, priority 2020, published 2023).

Where two headings read alike, the source gives them in different places. A value given as a limit tells only on which side of the number the result lay.

One data set deals with recombinant human GALK1 (Homo sapiens, UniProt P51570). Kind of data set: hGALK1 biochemical activity assay (Kinase-Glo Plus, ATP depletion). Put shortly: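 Turnover is measured as ATP depletion by Kinase-Glo Plus luminescence after a 1 h room-temperature reaction. Compounds span 11 concentrations, 57.4 μM–0.97 nM, in final 20 mM HEPES pH 8.0 with 5 mM MgCl2. The substrate solution held 35 μM ATP; the added solution held 5 nM human or mouse GALK1 and 100 μM galactose.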
Chain of recombinant human GALK1 (P51570 whole entry): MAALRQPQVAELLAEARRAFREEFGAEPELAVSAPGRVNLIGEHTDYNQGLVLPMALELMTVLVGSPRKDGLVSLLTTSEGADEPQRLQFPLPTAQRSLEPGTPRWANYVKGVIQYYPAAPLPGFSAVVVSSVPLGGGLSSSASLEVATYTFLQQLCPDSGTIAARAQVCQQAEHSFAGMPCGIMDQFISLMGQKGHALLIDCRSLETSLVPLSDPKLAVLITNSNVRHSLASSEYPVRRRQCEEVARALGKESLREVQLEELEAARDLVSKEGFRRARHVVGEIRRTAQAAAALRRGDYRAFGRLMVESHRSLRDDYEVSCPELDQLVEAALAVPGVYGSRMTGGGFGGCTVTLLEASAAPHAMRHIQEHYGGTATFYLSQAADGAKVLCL

Data set [1] in a line: rat microsomal stability (RLM). Particulars: microsomal stability half-life.
The next data set in a line: PAMPA permeability. The note with it: PAMPA. A general note: PAMPA measures passive passage across an artificial lipid membrane.
The next data set deals with recombinant mouse GALK1 (Mus musculus, UniProt Q9R0N0). As to the kind of experiment: mGALK1 biochemical activity assay (Kinase-Glo Plus, ATP depletion). Put shortly:
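Recombinant GALK1 (5 nM) with 100 μM galactose; GALK1 turnover read as ATP depletion by Kinase-Glo Plus luminescence. Reaction ran 1 h at room temperature before detection reagent was added.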
A general note: Kinase-Glo reads ATP consumption through a luciferase reaction.

Data set [2] in a line: aqueous kinetic solubility. Particulars: aqueous kinetic solubility.
Setting [3] is: recombinant human GALK1, Kinase-Glo Plus ATP depletion, read-out: hGALK.
The mark [4] stands for this setting: Tables 2-15, 35 μM ATP, 100 μM galactose, 1 h, bracketed figure after some values is undefined and not reported, read-out: mGALK IC50.
The mark [5] stands for this setting: recombinant mouse GALK1, Kinase-Glo Plus ATP depletion, read-out: mGALK.
[6] abbreviates: Tables 2-15, 35 μM ATP, 100 μM galactose, 1 h, bracketed figure after some values (e.g. −1.2) is undefined and not reported, read-out: hGALK IC50.

Chain of recombinant mouse GALK1 (Q9R0N0 whole entry): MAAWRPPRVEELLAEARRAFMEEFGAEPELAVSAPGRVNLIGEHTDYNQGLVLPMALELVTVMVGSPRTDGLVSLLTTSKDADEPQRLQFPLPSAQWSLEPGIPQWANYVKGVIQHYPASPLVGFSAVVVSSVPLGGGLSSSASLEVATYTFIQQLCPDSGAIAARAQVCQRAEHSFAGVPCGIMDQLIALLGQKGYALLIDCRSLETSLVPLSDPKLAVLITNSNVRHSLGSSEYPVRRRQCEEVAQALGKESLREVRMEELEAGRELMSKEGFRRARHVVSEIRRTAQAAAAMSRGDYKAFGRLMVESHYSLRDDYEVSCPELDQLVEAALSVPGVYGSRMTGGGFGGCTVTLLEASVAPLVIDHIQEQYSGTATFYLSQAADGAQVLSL

Turning to `CC1=C(C(=O)Nc2ccccc2CO)C(c2ccccc2Cl)N=C(Nc2nc3ccccc3o2)N1` (stereo not drawn) [Compound 156, 2-(benzo[d]oxazol-2-ylamino)-4-(2-chlorophenyl)-N-(2-(hydroxymethyl)phenyl)-6-methyl-1,4-dihydropyrimidine-5-carboxamide], the IC50 at recombinant human GALK1 (setting [3]) was found to be 3.85 µM; on recombinant mouse GALK1 (setting [4]), 17.2 µM; on recombinant mouse GALK1 (setting [5]), 17.2 µM. Also, the “Metab. Stabil. (m)” value in data set [1] was determined as 7.708 m. In the data set “PAMPA permeability”, the “Perm. (1 × 10^−6 cm/sec)” value is reported as 1038.5 1 × 10^−6 cm/sec. The “Sol.” value in data set [2] was below 1 µg/mL.

`CC1=C(C(=O)Nc2ccccc2O)C(c2ccccc2Cl)N=C(Nc2nc3ccccc3o2)N1` (stereo not drawn) [Compound 161, 2-(benzo[d]oxazol-2-ylamino)-N-(2-hydroxyphenyl)-4-(2-chlorophenyl)-6-methyl-1,4-dihydropyrimidine-5-carboxamide]: the figures for the IC50 at recombinant human GALK1 (setting [6]), on recombinant mouse GALK1 (setting [4]) and at recombinant mouse GALK1 (setting [5]) were 6.85 µM, 17.2 µM and 17.2 µM, respectively. Also, in data set [1], the “Metab. Stabil. (m)” value worked out at 17.94 m. In addition, the “Perm. (1 × 10^−6 cm/sec)” value in the data set “PAMPA permeability” is reported as 21.1 1 × 10^−6 cm/sec. The “Sol.” value in data set [2] is below 1 µg/mL.

In the case of `CC1=C(C(=O)Nc2ccc([N+](=O)[O-])cc2)C(c2ccccc2Cl)N=C(Nc2nc3ccccc3o2)N1` (stereo not drawn) [Compound 163, 2-(benzo[d]oxazol-2-ylamino)-4-(2-chlorophenyl)-6-methyl-N-(4-nitrophenyl)-1,4-dihydropyrimidine-5-carboxamide], the IC50 at recombinant human GALK1 (setting [6]), at recombinant human GALK1 (setting [3]), at recombinant mouse GALK1 (setting [4]) and on recombinant mouse GALK1 (setting [5]) was 3.43 µM in each case. Besides, the “Metab. Stabil. (m)” value in data set [1] is listed as above 30 m. In the data set “PAMPA permeability”, the “Perm. (1 × 10^−6 cm/sec)” value is <7.3 1 × 10^−6 cm/sec. In addition, in data set [2], the “Sol.” value is below 1 µg/mL.

For `CC1=C(C(=O)Nc2ccc(C(=O)O)nc2)C(c2ccccc2Cl)N=C(Nc2nc3ccccc3o2)N1` (stereo not drawn) [Compound 164, 5-(2-(benzo[d]oxazol-2-ylamino)-4-(2-chlorophenyl)-6-methyl-1,4-dihydropyrimidine-5-carboxamido)picolinic acid], the IC50 at recombinant human GALK1 (setting [3]) is 4.85 µM; at recombinant mouse GALK1 (setting [5]), 9.68 µM. For the same molecule, the “Metab. Stabil. (m)” value in data set [1] is above 30 m. In the data set “PAMPA permeability”, the “Perm. (1 × 10^−6 cm/sec)” value is listed as <1 1 × 10^−6 cm/sec. Also, the “Sol.” value in data set [2] came to 24.6 µg/mL.

As to `CC1=C(C(=O)Nc2ccc(CO)nc2)C(c2ccccc2Cl)N=C(Nc2nc3ccccc3o2)N1` (stereo not drawn) [Compound 165, 2-(benzo[d]oxazol-2-ylamino)-4-(2-chlorophenyl)-N-(6-(hydroxymethyl)pyridin-3-yl)-6-methyl-1,4-dihydropyrimidine-5-carboxamide], the results for the IC50 at recombinant human GALK1 (setting [3]) and on recombinant mouse GALK1 (setting [5]) were 4.85 µM and 7.69 µM, respectively. Further, the “Metab. Stabil. (m)” value in data set [1] is above 30 m. The “Perm. (1 × 10^−6 cm/sec)” value in the data set “PAMPA permeability” is reported as 766.1 1 × 10^−6 cm/sec. The “Sol.” value in data set [2] is below 1 µg/mL.

As for `COC(=O)c1ccc(NC(=O)C2=C(C)NC(Nc3nc4ccccc4o3)=NC2c2ccccc2Cl)cn1` (stereo not drawn) [Compound 166, methyl 5-(2-(benzo[d]oxazol-2-ylamino)-4-(2-chlorophenyl)-6-methyl-1,4-dihydropyrimidine-5-carboxamido)picolinate], the IC50 at recombinant human GALK1 (setting [3]) stood at 6.11 µM; on recombinant mouse GALK1 (setting [5]) it was 6.85 µM. Besides, in data set [1], the “Metab. Stabil. (m)” value was 4.678 m. Further, in the data set “PAMPA permeability”, the “Perm. (1 × 10^−6 cm/sec)” value is recorded as 96.1 1 × 10^−6 cm/sec. Also, the “Sol.” value in data set [2] is below 1 µg/mL.

Turning to `CC1=C(C(=O)Nc2nnc(C(F)(F)F)s2)C(c2ccccc2Cl)N=C(Nc2nc3ccccc3o2)N1` (stereo not drawn) [Compound 167, 2-(benzo[d]oxazol-2-ylamino)-4-(2-chlorophenyl)-6-methyl-N-(5-(trifluoromethyl)-1,3,4-thiadiazol-2-yl)-1,4-dihydropyrimidine-5-carboxamide], the IC50 at recombinant human GALK1 (setting [6]) was 12.2 µM; on recombinant human GALK1 (setting [3]), 12.2 µM; at recombinant mouse GALK1 (setting [4]), 21.7 µM; on recombinant mouse GALK1 (setting [5]) it was 21.7 µM. Further, the “Metab. Stabil. (m)” value in data set [1] is listed as above 30 m. For the same molecule, in “PAMPA permeability”, the “Perm. (1 × 10^−6 cm/sec)” value is listed as 12.6 1 × 10^−6 cm/sec. The “Sol.” value in data set [2] was below 1 µg/mL.

Take `CCOC(=O)c1nnc(NC(=O)C2=C(C)NC(Nc3nc4ccccc4o3)=NC2c2ccccc2Cl)s1` (stereo not drawn) [Compound 168, ethyl 5-(2-(benzo[d]oxazol-2-ylamino)-4-(2-chlorophenyl)-6-methyl-1,4-dihydropyrimidine-5-carboxamido)-1,3,4-thiadiazole-2-carboxylate]: the IC50 on recombinant human GALK1 (setting [6]) turned out to be 4.85 µM; on recombinant human GALK1 (setting [3]), 4.85 µM; at recombinant mouse GALK1 (setting [4]), 10.9 µM. In addition, in data set [1], the “Metab. Stabil. (m)” value turned out to be 3.158 m. Further, in “PAMPA permeability”, the “Perm. (1 × 10^−6 cm/sec)” value is on record as <2.7 1 × 10^−6 cm/sec. Moreover, in data set [2], the “Sol.” value was below 1 µg/mL.

`COC(=O)Cc1ccc(NC(=O)C2=C(C)NC(Nc3nc4ccccc4o3)=NC2c2ccccc2Cl)cc1` (stereo not drawn) [Compound 170, methyl 2-(4-(2-(benzo[d]oxazol-2-ylamino)-4-(2-chlorophenyl)-6-methyl-1,4-dihydropyrimidine-5-carboxamido)phenyl)acetate]: the IC50 at recombinant human GALK1 (setting [6]) came out at 5.44 µM; on recombinant human GALK1 (setting [3]), 5.44 µM; at recombinant mouse GALK1 (setting [4]), 12.2 µM; on recombinant mouse GALK1 (setting [5]), 12.2 µM. The “Metab. Stabil. (m)” value in data set [1] was determined as 7.464 m. The “Perm. (1 × 10^−6 cm/sec)” value in the data set “PAMPA permeability” is reported as 195.0 1 × 10^−6 cm/sec. In addition, in data set [2], the “Sol.” value was below 1 µg/mL.

As to `CC1=C(C(=O)Nc2cccc(CN)c2)C(c2ccccc2Cl)N=C(Nc2nc3ccccc3o2)N1` (stereo not drawn) [Compound 171, N-(3-(aminomethyl)phenyl)-2-(benzo[d]oxazol-2-ylamino)-4-(2-chlorophenyl)-6-methyl-1,4-dihydropyrimidine-5-carboxamide], the IC50 at recombinant human GALK1 (setting [6]) amounted to 10.9 µM; at recombinant human GALK1 (setting [3]), 10.9 µM; on recombinant mouse GALK1 (setting [4]) it was 6.85 µM; on recombinant mouse GALK1 (setting [5]), 6.85 µM. Besides, the “Metab. Stabil. (m)” value in data set [1] is listed as above 30 m. In addition, the “Perm. (1 × 10^−6 cm/sec)” value in “PAMPA permeability” is reported as 32.7 1 × 10^−6 cm/sec. Moreover, the “Sol.” value in data set [2] was found to be 37.5 µg/mL.

`CC1=C(C(=O)Nc2cccc(-c3nnn[nH]3)c2)C(c2ccccc2Cl)N=C(Nc2nc3ccccc3o2)N1` (stereo not drawn) [Compound 175, N-(3-(1H-tetrahydro-5-yl)phenyl)-2-(benzo[d]oxazol-2-ylamino)-4-(2-chlorophenyl)-6-methyl-1,4-dihydropyrimidine-5-carboxamide]: the IC50 at recombinant human GALK1 (setting [6]) worked out at 19.3 µM; on recombinant human GALK1 (setting [3]) it was 19.3 µM; at recombinant mouse GALK1 (setting [4]) it was 34.3 µM; at recombinant mouse GALK1 (setting [5]), 34.3 µM. Besides, in data set [1], the “Metab. Stabil. (m)” value is given as above 30 m. For the same molecule, in the data set “PAMPA permeability”, the “Perm. (1 × 10^−6 cm/sec)” value is reported as 5.0 1 × 10^−6 cm/sec. Besides, the “Sol.” value in data set [2] was found to be 47.5 µg/mL.

Turning to `COC(=O)Cc1cccc(NC(=O)C2=C(C)NC(Nc3nc4ccccc4o3)=NC2c2ccccc2Cl)c1` (stereo not drawn) [Compound 176, methyl 2-(3-(2-(benzo[d]oxazol-2-ylamino)-4-(2-chlorophenyl)-6-methyl-1,4-dihydropyrimidine-5-carboxamido)phenyl)acetate], the IC50 at recombinant human GALK1 (setting [6]) came to 10.9 µM; at recombinant human GALK1 (setting [3]) it was 10.9 µM; on recombinant mouse GALK1 (setting [4]) it was 13.7 µM; on recombinant mouse GALK1 (setting [5]), 13.7 µM. Moreover, the “Metab. Stabil. (m)” value in data set [1] amounted to 10.34 m. The “Perm. (1 × 10^−6 cm/sec)” value in the data set “PAMPA permeability” is listed as <17.4 1 × 10^−6 cm/sec. In addition, the “Sol.” value in data set [2] was below 1 µg/mL.

With `CC1=C(C(=O)Nc2cccc(-c3cn[nH]c3)c2)C(c2ccccc2Cl)N=C(Nc2nc3ccccc3o2)N1` (stereo not drawn) [Compound 178, N-(3-(1H-pyrazol-4-yl)phenyl)-2-(benzo[d]oxazol-2-ylamino)-4-(2-chlorophenyl)-6-methyl-1,4-dihydropyrimidine-5-carboxamide], the IC50 at recombinant human GALK1 (setting [6]) was 17.2 µM; at recombinant human GALK1 (setting [3]) it was 17.2 µM; at recombinant mouse GALK1 (setting [4]), 38.5 µM; at recombinant mouse GALK1 (setting [5]) it was 38.5 µM. The “Metab. Stabil. (m)” value in data set [1] is listed as above 30 m. The “Perm. (1 × 10^−6 cm/sec)” value in “PAMPA permeability” is <25.4 1 × 10^−6 cm/sec. Besides, the “Sol.” value in data set [2] was below 1 µg/mL.

As for `CC1=C(C(=O)Nc2nnc(-c3cccnc3)s2)C(c2ccccc2Cl)N=C(Nc2nc3ccccc3o2)N1` (stereo not drawn) [Compound 180, 2-(benzo[d]oxazol-2-ylamino)-4-(2-chlorophenyl)-6-methyl-N-(5-(pyridin-3-yl)-1,3,4-thiadiazol-2-yl)-1,4-dihydropyrimidine-5-carboxamide], the IC50 at recombinant human GALK1 (setting [6]) came out at 3.06 µM; on recombinant human GALK1 (setting [3]), 3.06 µM; on recombinant mouse GALK1 (setting [4]), 9.68 µM; at recombinant mouse GALK1 (setting [5]), 9.68 µM. The “Metab. Stabil. (m)” value in data set [1] is on record as above 30 m. Besides, the “Perm. (1 × 10^−6 cm/sec)” value in the data set “PAMPA permeability” is recorded as <3.7 1 × 10^−6 cm/sec. For the same molecule, the “Sol.” value in data set [2] is below 1 µg/mL.

`CC1=C(C(=O)Nc2ccc(C(N)=O)cc2)C(c2ccccc2Cl)N=C(Nc2nc3ccccc3o2)N1` (stereo not drawn) [Compound 181, 2-(benzo[d]oxazol-2-ylamino)-N-(4-carbamoylphenyl)-4-(2-chlorophenyl)-6-methyl-1,4-dihydropyrimidine-5-carboxamide]: the IC50 at recombinant human GALK1 (setting [6]) worked out at 4.32 µM; on recombinant human GALK1 (setting [3]), 4.32 µM; at recombinant mouse GALK1 (setting [4]), 6.85 µM; on recombinant mouse GALK1 (setting [5]), 6.85 µM. Besides, the “Metab. Stabil. (m)” value in data set [1] is listed as above 30 m. Further, the “Perm. (1 × 10^−6 cm/sec)” value in the data set “PAMPA permeability” is recorded as <6.3 1 × 10^−6 cm/sec. For the same molecule, in data set [2], the “Sol.” value is below 1 µg/mL.
